Measured values from patent publication US10322111B2, “Chemokine receptor binding heterocyclic compounds with enhanced efficacy” (Genzyme Corporation, priority 2001, dated 2019).
Like-named read-outs stand apart in the source and are kept apart here.

System: CFU-GM, BFU-E and CFU-GEMM progenitor cells
Conditions: 80 μg/kg s.c.

c1cc(CN2CCCNCCNCCCNCC2)ccc1CN1CCCNCCNCCCNCC1 [AMD3100, 1,1′-[1,4-phenylene-bis(methylene)]-bis-1,4,8,11-tetraazacyclotetradecane]
Absolute # of Progenitors per ML, BFU-E (P1, T = 1 h after injection): 674 per ML | Absolute # of Progenitors per ML, CFU-GEMM (P1, T = 1 h after injection): 264 per ML | Absolute # of Progenitors per ML, CFU-GM (P1, T = 1 h after injection): 1259 per ML | fold change from T=0, progenitors BFU-E, methylcellulose culture (P1, T = 1 h after injection): 2.58 fold | fold change from T=0, progenitors CFU-GEMM, methylcellulose culture (P1, T = 1 h after injection): 2.07 fold | fold change from T=0, progenitors CFU-GM, methylcellulose culture (P1, T = 1 h after injection): 5.09 fold | Absolute # of Progenitors per ML, BFU-E (P1, T = 3 h after injection): 1340 per ML | Absolute # of Progenitors per ML, CFU-GEMM (P1, T = 3 h after injection): 540 per ML | Absolute # of Progenitors per ML, CFU-GM (P1, T = 3 h after injection): 1760 per ML | fold change from T=0, progenitors BFU-E, methylcellulose culture (P1, T = 3 h after injection): 5.13 fold | fold change from T=0, progenitors CFU-GEMM, methylcellulose culture (P1, T = 3 h after injection): 4.25 fold | fold change from T=0, progenitors CFU-GM, methylcellulose culture (P1, T = 3 h after injection): 7.12 fold | Absolute # of Progenitors per ML, BFU-E (P1, T = 6 h after injection): 2388 per ML | Absolute # of Progenitors per ML, CFU-GEMM (P1, T = 6 h after injection): 949 per ML | Absolute # of Progenitors per ML, CFU-GM (P1, T = 6 h after injection): 3624 per ML | fold change from T=0, progenitors BFU-E, methylcellulose culture (P1, T = 6 h after injection): 9.14 fold | fold change from T=0, progenitors CFU-GEMM, methylcellulose culture (P1, T = 6 h after injection): 7.47 fold | fold change from T=0, progenitors CFU-GM, methylcellulose culture (P1, T = 6 h after injection): 14.66 fold | Absolute # of Progenitors per ML, BFU-E (P1, T = 9 h after injection): 1418 per ML | Absolute # of Progenitors per ML, CFU-GEMM (P1, T = 9 h after injection): 335 per ML | Absolute # of Progenitors per ML, CFU-GM (P1, T = 9 h after injection): 1547 per ML | fold change from T=0, progenitors BFU-E, methylcellulose culture (P1, T = 9 h after injection): 5.43 fold | fold change from T=0, progenitors CFU-GEMM, methylcellulose culture (P1, T = 9 h after injection): 2.64 fold | fold change from T=0, progenitors CFU-GM, methylcellulose culture (P1, T = 9 h after injection): 6.26 fold | Absolute # of Progenitors per ML, BFU-E (P1, T = 24 h after injection): 278 per ML | Absolute # of Progenitors per ML, CFU-GEMM (P1, T = 24 h after injection): 142 per ML | Absolute # of Progenitors per ML, CFU-GM (P1, T = 24 h after injection): 271 per ML | fold change from T=0, progenitors BFU-E, methylcellulose culture (P1, T = 24 h after injection): 1.06 fold | fold change from T=0, progenitors CFU-GEMM, methylcellulose culture (P1, T = 24 h after injection): 1.12 fold | fold change from T=0, progenitors CFU-GM, methylcellulose culture (P1, T = 24 h after injection): 1.10 fold | Absolute # of Progenitors per ML, BFU-E (P2, T = 1 h after injection): 608 per ML | Absolute # of Progenitors per ML, CFU-GEMM (P2, T = 1 h after injection): 272 per ML | Absolute # of Progenitors per ML, CFU-GM (P2, T = 1 h after injection): 1455 per ML | fold change from T=0, progenitors BFU-E, methylcellulose culture (P2, T = 1 h after injection): 1.48 fold | fold change from T=0, progenitors CFU-GEMM, methylcellulose culture (P2, T = 1 h after injection): 2.26 fold | fold change from T=0, progenitors CFU-GM, methylcellulose culture (P2, T = 1 h after injection): 5.33 fold | Absolute # of Progenitors per ML, BFU-E (P2, T = 3 h after injection): 809 per ML | Absolute # of Progenitors per ML, CFU-GEMM (P2, T = 3 h after injection): 418 per ML | Absolute # of Progenitors per ML, CFU-GM (P2, T = 3 h after injection): 4646 per ML | fold change from T=0, progenitors BFU-E, methylcellulose culture (P2, T = 3 h after injection): 1.98 fold | fold change from T=0, progenitors CFU-GEMM, methylcellulose culture (P2, T = 3 h after injection): 3.47 fold | fold change from T=0, progenitors CFU-GM, methylcellulose culture (P2, T = 3 h after injection): 17.02 fold | Absolute # of Progenitors per ML, BFU-E (P2, T = 6 h after injection): 1502 per ML | Absolute # of Progenitors per ML, CFU-GEMM (P2, T = 6 h after injection): 1126 per ML | Absolute # of Progenitors per ML, CFU-GM (P2, T = 6 h after injection): 6540 per ML | fold change from T=0, progenitors BFU-E, methylcellulose culture (P2, T = 6 h after injection): 3.67 fold | fold change from T=0, progenitors CFU-GEMM, methylcellulose culture (P2, T = 6 h after injection): 9.35 fold | fold change from T=0, progenitors CFU-GM, methylcellulose culture (P2, T = 6 h after injection): 23.96 fold | Absolute # of Progenitors per ML, BFU-E (P2, T = 9 h after injection): 1886 per ML | Absolute # of Progenitors per ML, CFU-GEMM (P2, T = 9 h after injection): 854 per ML | Absolute # of Progenitors per ML, CFU-GM (P2, T = 9 h after injection): 3416 per ML | fold change from T=0, progenitors BFU-E, methylcellulose culture (P2, T = 9 h after injection): 4.61 fold | fold change from T=0, progenitors CFU-GEMM, methylcellulose culture (P2, T = 9 h after injection): 7.09 fold | fold change from T=0, progenitors CFU-GM, methylcellulose culture (P2, T = 9 h after injection): 12.51 fold | Absolute # of Progenitors per ML, BFU-E (P2, T = 24 h after injection): 768 per ML | Absolute # of Progenitors per ML, CFU-GEMM (P2, T = 24 h after injection): 316 per ML | Absolute # of Progenitors per ML, CFU-GM (P2, T = 24 h after injection): 521 per ML | fold change from T=0, progenitors BFU-E, methylcellulose culture (P2, T = 24 h after injection): 1.88 fold | fold change from T=0, progenitors CFU-GEMM, methylcellulose culture (P2, T = 24 h after injection): 2.62 fold | fold change from T=0, progenitors CFU-GM, methylcellulose culture (P2, T = 24 h after injection): 1.91 fold | Absolute # of Progenitors per ML, BFU-E (P3, T = 1 h after injection): 806 per ML | Absolute # of Progenitors per ML, CFU-GEMM (P3, T = 1 h after injection): 312 per ML | Absolute # of Progenitors per ML, CFU-GM (P3, T = 1 h after injection): 1040 per ML | fold change from T=0, progenitors BFU-E, methylcellulose culture (P3, T = 1 h after injection): 2.30 fold | fold change from T=0, progenitors CFU-GEMM, methylcellulose culture (P3, T = 1 h after injection): 2.22 fold | fold change from T=0, progenitors CFU-GM, methylcellulose culture (P3, T = 1 h after injection): 3.70 fold | Absolute # of Progenitors per ML, BFU-E (P3, T = 3 h after injection): 915 per ML | Absolute # of Progenitors per ML, CFU-GEMM (P3, T = 3 h after injection): 610 per ML | Absolute # of Progenitors per ML, CFU-GM (P3, T = 3 h after injection): 4233 per ML | fold change from T=0, progenitors BFU-E, methylcellulose culture (P3, T = 3 h after injection): 2.61 fold | fold change from T=0, progenitors CFU-GEMM, methylcellulose culture (P3, T = 3 h after injection): 4.34 fold | fold change from T=0, progenitors CFU-GM, methylcellulose culture (P3, T = 3 h after injection): 15.07 fold | Absolute # of Progenitors per ML, BFU-E (P3, T = 6 h after injection): 1593 per ML | Absolute # of Progenitors per ML, CFU-GEMM (P3, T = 6 h after injection): 916 per ML | Absolute # of Progenitors per ML, CFU-GM (P3, T = 6 h after injection): 5895 per ML | fold change from T=0, progenitors BFU-E, methylcellulose culture (P3, T = 6 h after injection): 4.54 fold | fold change from T=0, progenitors CFU-GEMM, methylcellulose culture (P3, T = 6 h after injection): 6.52 fold | fold change from T=0, progenitors CFU-GM, methylcellulose culture (P3, T = 6 h after injection): 20.99 fold | Absolute # of Progenitors per ML, BFU-E (P3, T = 9 h after injection): 1302 per ML | Absolute # of Progenitors per ML, CFU-GEMM (P3, T = 9 h after injection): 347 per ML | Absolute # of Progenitors per ML, CFU-GM (P3, T = 9 h after injection): 2647 per ML | fold change from T=0, progenitors BFU-E, methylcellulose culture (P3, T = 9 h after injection): 3.71 fold | fold change from T=0, progenitors CFU-GEMM, methylcellulose culture (P3, T = 9 h after injection): 2.47 fold | fold change from T=0, progenitors CFU-GM, methylcellulose culture (P3, T = 9 h after injection): 9.42 fold | Absolute # of Progenitors per ML, BFU-E (P3, T = 24 h after injection): 402 per ML | Absolute # of Progenitors per ML, CFU-GEMM (P3, T = 24 h after injection): 97 per ML | Absolute # of Progenitors per ML, CFU-GM (P3, T = 24 h after injection): 402 per ML | fold change from T=0, progenitors BFU-E, methylcellulose culture (P3, T = 24 h after injection): 1.14 fold | fold change from T=0, progenitors CFU-GEMM, methylcellulose culture (P3, T = 24 h after injection): 0.69 fold | fold change from T=0, progenitors CFU-GM, methylcellulose culture (P3, T = 24 h after injection): 1.43 fold
